Patent US20160238590A1, “COMPOSITIONS AND METHODS RELATED TO OAT SENSITIVITY” (IMMUSANT, INC., priority 2013, published 2016)
Where no end group is shown, it is not given here. [ ]: non-standard residue; d: D form. pGlu = O=C1CC[C@@H](C(=O)O)N1

Key:
Assay type in all cases: cell-based, human
PBMC [1] = experiment: IFN-γ ELISpot on PBMC of CD patients on day 6 after 3-day oats challenge; conditions: after 3-day oats challenge
Text: (§1) Australian Caucasian HLA-DQ2.5^+ and/or HLA-DQ8^+ CD subjects were recruited by advertisement in the Coeliac Society of Victoria newsletter and all had biopsy-proven CD conforming to ESPGHAN criteria. Patients had been on strict gluten free diet for at least 4 weeks prior to commencing grain challenge. Patients underwent 3-day grain challenge with oats, barley, or combined wheat, barley, and rye muffins, and 6 days after commencement, blood was collected. Day 0 responses were not observed in the selection of patients tested, as described previously^8.
(§2) Oats challenge consisted of 100 g dry weight daily of one of three commercial brands of oats: one not tested for wheat contamination (Uncle Toby's; Oats #1), and two shown by R5 ELISA to contain less than 20 ppm wheat gluten (Tilquhilie Pudding; Oats #2 and Freedom Food; Oats #3). Barley challenge consisted of pearl barley (Ward McKenzie) cooked into a risotto (150 g dry weight daily) and the wheat challenge consisted of four 50 g slices of wheat bread daily (Baker's Delight white loaf cut to toasting thickness). The combined wheat, barley, and rye challenge consisted of muffins baked with wheat flour (White Wings), barley flour (Four Leaf Milling), and rye flour (Four Leaf Milling; 22-25 g dry weight each daily). A symptom diary based on a […] Likert scale was completed by participants daily from baseline until day 6.
(§3) Two avenin peptide libraries were utilized for epitope screening. These were designed using avenin sequences from GenBank and a customized algorithm, as previously described^9. The initial library consisted of 199 screening-grade 20 mers including all possible 12 mers (Mimotopes). This library was screened with and without tTG pre-treatment. The second library consisted of additional avenin sequences that were synthesized with glutamate substitution at sites predicted to be deamidated by published algorithms^10, 11 removing the requirement for tTG treatment. This library contained 369 screening-grade 20 mers, including all possible 12 mers (Pepscan). The second round avenin library contained wild-type and deamidated versions of the most immunogenic sequences (25 high quality 16 mers from Mimotopes). High quality peptides containing previously described immunogenic sequences from wheat, barley, and rye were used to test for cross-reactivity^8 (Pepscan). High quality hordein and avenin peptides for TCC testing and biochemical studies were ordered from Pepscan, Mimotopes, or GL Biochem.
(§4) Peripheral blood mononuclear cells (PBMC) were isolated from heparinized whole blood using Ficoll-Paque™ Plus density-gradient centrifugation (GE Healthcare). IFN-γ ELISpot (Mabtech) was set up as previously described^8.

PBMC [2] = experiment: IFN-γ ELISpot on PBMC of CD patients after 3-day barley challenge; conditions: after barley challenge
Text: as §1, §2, §3, §4

Patient 14 TCC-01 = experiment: IFN-γ ELISpot with T cell clone; conditions: TCC Patient 14 TCC-01 (Table 5); mean no antigen 11.3, high background, SFU >25 considered as positive responses
Protocol: as §4
(§5) Isolation of TCC from CD patients was carried out as previously described^8. Briefly, CFSE-labeled PBMC were incubated with antigen for 7 days in IMDM supplemented with 5% heat-inactivated pooled human serum (PHS), 2 mM GlutaMAX™, 100 μM MEM non-essential amino acids (both from Gibco, Invitrogen), and 50 μM 2-mercaptoethanol (Sigma). Proliferated cells were single-cell sorted into 96-well plates containing IL-2, IL-4, anti-CD3 mAb, irradiated feeder cells (allogeneic PBMC and JY-EBV). TCC were expanded and maintained in IL-2 and IL-4 and tested for specificity by ELISpot with irradiated HLA-matched PBMC as antigen-presenting cells. Expanded clones were tested for HLA-DQ restriction, TCR Vbeta usage, and with lysine scans to work out minimal epitopes. See Table 1 below for TCC and epitope information.

Patient 2 TCC-01 = experiment: IFN-γ ELISpot with T cell clone; conditions: TCC Patient 2 TCC-01 (Table 5); mean no antigen 1.1
Protocol: as §4, §5

Patient 6 TCC-01 = experiment: IFN-γ ELISpot with T cell clone; conditions: TCC Patient 6 TCC-01 (Table 5); mean no antigen 2
Protocol: as §4, §5

Substance	IFN-γ ELISpot response (raw SFU) (PBMC [1]; patient P1, peptide 1 μg/ml) [SFU]	IFN-γ ELISpot response (raw SFU) (PBMC [1]; patient P1, peptide 10 μg/ml) [SFU]	IFN-γ ELISpot response (raw SFU) (PBMC [1]; patient P1, peptide 100 μg/ml) [SFU]	IFN-γ ELISpot response (raw SFU) (PBMC [1]; patient P2, peptide 1 μg/ml) [SFU]	IFN-γ ELISpot response (raw SFU) (PBMC [1]; patient P2, peptide 10 μg/ml) [SFU]	IFN-γ ELISpot response (raw SFU) (PBMC [1]; patient P2, peptide 100 μg/ml) [SFU]	significant SFU as a percentage of maximal peptide SFU (PBMC [1]; patient P2, peptide 100 μg/ml)	IFN-γ ELISpot response (raw SFU) (PBMC [1]; patient P3, peptide 1 μg/ml) [SFU]	IFN-γ ELISpot response (raw SFU) (PBMC [1]; patient P3, peptide 10 μg/ml) [SFU]	IFN-γ ELISpot response (raw SFU) (PBMC [1]; patient P3, peptide 100 μg/ml) [SFU]	IFN-γ ELISpot response (raw SFU) (PBMC [1]; patient P11, peptide 1 μg/ml) [SFU]	IFN-γ ELISpot response (raw SFU) (PBMC [1]; patient P11, peptide 10 μg/ml) [SFU]	IFN-γ ELISpot response (raw SFU) (PBMC [1]; patient P11, peptide 100 μg/ml) [SFU]	IFN-γ ELISpot response (raw SFU) (PBMC [1]; patient P12, peptide 1 μg/ml) [SFU]	IFN-γ ELISpot response (raw SFU) (PBMC [1]; patient P12, peptide 10 μg/ml) [SFU]	IFN-γ ELISpot response (raw SFU) (PBMC [1]; patient P12, peptide 100 μg/ml) [SFU]	IFN-γ ELISpot response (raw SFU) (PBMC [1]; patient P13, peptide 50 μg/ml) [SFU]	IFN-γ ELISpot response (raw SFU) (Patient 14 TCC-01) [SFU]	IFN-γ ELISpot response (raw SFU) (Patient 2 TCC-01) [SFU]	IFN-γ ELISpot response (raw SFU) (Patient 6 TCC-01) [SFU]	further results
SEQYQPYPEQEQPFVQ [deamidated avenin peptide containing DQ2.5-ave-1b]	24	18	10	5	9	24	** (**: 40-70%)	4	7	2	0	3	0	2	4	2	13	10	295	12	significant SFU as a percentage of maximal peptide SFU (PBMC [1]; patient P1, peptide 1 μg/ml): *** (***: >70%); significant SFU as a percentage of maximal peptide SFU (PBMC [1]; patient P1, peptide 10 μg/ml): ** (**: 40-70%); significant SFU as a percentage of maximal peptide SFU (PBMC [1]; patient P13, peptide 50 μg/ml): * (*: 20-40%); IFN-γ ELISpot response (raw SFU) (PBMC [2]; Patient 1, peptide 50 μg/ml): 77 SFU; significant SFU as a percentage of maximal peptide SFU (PBMC [2]; Patient 1, peptide 50 μg/ml): * (*: 20-40%); IFN-γ ELISpot response (raw SFU) (PBMC [2]; Patient 2, peptide 50 μg/ml): 225 SFU; significant SFU as a percentage of maximal peptide SFU (PBMC [2]; Patient 2, peptide 50 μg/ml): *** (***: >70%); IFN-γ ELISpot response (raw SFU) (PBMC [2]; Patient 3, peptide 50 μg/ml): 36 SFU; significant SFU as a percentage of maximal peptide SFU (PBMC [2]; Patient 3, peptide 50 μg/ml): * (*: 20-40%)
SEQYQPYPEQQQPFVQ [avenin peptide, wild-type]	2	2	4	4	1	16	* (*: 20-40%)	1	2	4	0	0	0	0	1	4	1	11	100	1	–
QYQPYPEQQQPILQQQ [avenin peptide, Genbank AAB32025 (7-22), wild-type]	2	11	11	2	10	23	** (**: 40-70%)	1	25	4	2	11	4	1	3	7	2	22	79	3	significant SFU as a percentage of maximal peptide SFU (PBMC [1]; patient P1, peptide 10 μg/ml): * (*: 20-40%); significant SFU as a percentage of maximal peptide SFU (PBMC [1]; patient P1, peptide 100 μg/ml): * (*: 20-40%); significant SFU as a percentage of maximal peptide SFU (PBMC [1]; patient P3, peptide 10 μg/ml): ** (**: 40-70%); significant SFU as a percentage of maximal peptide SFU (PBMC [1]; patient P11, peptide 10 μg/ml): (^: 10-20%); significant SFU as a percentage of maximal peptide SFU (PBMC [1]; patient P11, peptide 100 μg/ml): ** (**: 40-70%)
pEPEQIIPEQPEQPS ([pGlu]PEQIIPEQPEQPS) [rye peptide, AAB58403.1 (195-208) [Q195 to pyroglutamate, Q202 to E, Q205 to E], reference compound]	–	–	–	–	–	–	–	–	–	–	–	–	–	–	–	–	–	59	2	3	–
pEPEQTFPEQPQLPF ([pGlu]PEQTFPEQPQLPF) [wheat peptide, AAK84780.1 (5-18) [Q5 to pyroglutamate, Q7 to E, Q12 to E], reference compound]	–	–	–	–	–	–	–	–	–	–	–	–	–	–	–	–	–	33	2	11	–
pEQPFPQPEQPQLPF ([pGlu]QPFPQPEQPQLPF) [wheat peptide, AAK84772.1 (126-139) [Q126 to pyroglutamate, Q133 to E], reference compound]	–	–	–	–	–	–	–	–	–	–	–	–	–	–	–	–	–	14	4	23	–
